The text below walks through data of PubChem BioAssay AID298 (DTP/NCI, 2004).

Molecules are shown by their SMILES. “And” between values parts separate entries of the source, which are not always exact repeats. Equal values may be shown once. Inconclusive results are not listed.

The subject of this experiment is MX-1 breast xenograft, intrarenal, nude mice, tumor weight. In words: NCI In Vivo Anticancer Drug Screen. Data for tumor model Human Mammary Carcinoma MX-1 Xenograft (intrarenal inoculation) in NU/NU BALB/C (nude) mice. The conditions noted are these: endpoint: mean tumor weight change, higher = larger tumour. The gist of the method: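 T/C readout: treated-group measurement over vehicle-control measurement, using tumor size or survival in tumor-bearing mice.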

The mark [1] stands for this setting: dose: 75.0 mg/kg/injection, schedule: Q04DX003 (ip), vehicle: saline with Tween-80.
[2] abbreviates: dose: 150.0 mg/kg/injection, schedule: Q04DX003 (ip), vehicle: saline with Tween-80.
The mark [3] stands for this setting: dose: 300.0 mg/kg/injection, schedule: Q04DX003 (ip), vehicle: saline with Tween-80.
Where [4] appears, read: dose: 100.0 mg/kg/injection, schedule: Q04DX003 (ip), vehicle: saline with Tween-80.

Consider `COc1cc2oc3c(C)c(=O)cc4oc(-c5ccccc5)cc(c2c2c1CCC(c1ccccc1)O2)c43` (stereo not given), for which the T/C is 88 % of control (dose: 7.0 mg/kg/injection, schedule: Q04DX003 (ip), vehicle: Klucel (hydroxypropylcellulose) (HPC)); 82 % of control (dose: 14.0 mg/kg/injection, schedule: Q04DX003 (ip), vehicle: Klucel (hydroxypropylcellulose) (HPC)); 111 % of control (dose: 37.5 mg/kg/injection, schedule: Q04DX003 (ip), vehicle: saline with Tween-80); 107 % of control (dose: 56.0 mg/kg/injection, schedule: Q04DX003 (ip), vehicle: Klucel (hydroxypropylcellulose) (HPC)); 77 % of control under setting [1]; 117 % of control under setting [2]. In addition, under setting [3], the T/C was 52 % of control.
Consider `C=CCNC(=O)c1ccccc1SC(C)=O`, for which the T/C under setting [2] is 93 % of control and the T/C under setting [3] is 99 % of control.
For the compound `COC1(OC)C2C=CC1CC2`, the T/C (dose: 150.0 mg/kg/injection, schedule: Q04DX003 (sc), vehicle: saline with Tween-80) is 116 % of control; the T/C (dose: 300.0 mg/kg/injection, schedule: Q04DX003 (sc), vehicle: saline with Tween-80) is 104 % of control; the T/C (dose: 600.0 mg/kg/injection, schedule: Q04DX003 (sc), vehicle: saline with Tween-80) was 121 % of control; the T/C (dose: 1200.0 mg/kg/injection, schedule: Q04DX003 (sc), vehicle: saline with Tween-80) was 111 % of control.
`O=C(O)c1cc(C(=O)O)c(C(=O)O)cc1C(=O)O.[NH2-].[NH2-].[NH2-].[NH2-].[Pt+2].[Pt+2]`: the T/C was 81 % of control (dose: 10.0 mg/kg/injection, schedule: Q04DX003 (ip), vehicle: water); 42 % of control (dose: 20.0 mg/kg/injection, schedule: Q04DX003 (ip), vehicle: water); 12 % of control (dose: 40.0 mg/kg/injection, schedule: Q04DX003 (ip), vehicle: water).
For the compound `NCCCN=c1ccc2c3c1c(O)c1c(O)ccc(=O)c1c3[nH]n2CCNCCO`, the T/C by setting is: (dose: 9.35 mg/kg/injection, schedule: Q04DX003 (ip), vehicle: water) 19 % of control; (dose: 9.38 mg/kg/injection, schedule: Q04DX003 (ip), vehicle: water) 11 % of control; (dose: 18.75 mg/kg/injection, schedule: Q04DX003 (ip), vehicle: water) -33 % of control and -19 % of control and -16 % of control; (dose: 37.5 mg/kg/injection, schedule: Q04DX003 (ip), vehicle: water) -87 % of control and -83 % of control and -100 % of control.
Turning to `S=C(N/N=C1/CCCC/C1=N/NC(=S)N1CCOCC1)N1CCOCC1`, the T/C reads like this: (dose: 6.25 mg/kg/injection, schedule: Q04DX003 (ip), vehicle: saline with Tween-80) 81 % of control; (dose: 12.5 mg/kg/injection, schedule: Q04DX003 (ip), vehicle: saline with Tween-80) 76 % of control; (dose: 25.0 mg/kg/injection, schedule: Q04DX003 (ip), vehicle: saline with Tween-80) 48 % of control.
Consider `c1ccc(-c2cc3cc4ccccc4cn3c2)cc1`, for which the T/C under setting [2] was 61 % of control; the T/C under setting [3] was 108 % of control; the T/C (dose: 600.0 mg/kg/injection, schedule: Q04DX003 (ip), vehicle: saline with Tween-80) is 81 % of control; the T/C (dose: 1200.0 mg/kg/injection, schedule: Q04DX003 (ip), vehicle: saline with Tween-80) was 101 % of control.
As to `C=C/C(C)=C/[C@H](C)C(=O)C[C@H](O)CC1CC(=O)NC(=O)C1`, the T/C is 73 % of control (dose: 300.5 mg/kg/injection, schedule: Q04DX003 (sc), vehicle: water); 98 % of control (dose: 600.0 mg/kg/injection, schedule: Q04DX003 (sc), vehicle: water); 89 % of control (dose: 1200.0 mg/kg/injection, schedule: Q04DX003 (sc), vehicle: water).
`O=C1c2cccc(NCCCNCCO)c2C(=O)c2cccc(NCCCNCCO)c21`: the T/C was 89 % of control (dose: 18.75 mg/kg/injection, schedule: Q04DX003 (ip), vehicle: acid diluted with saline) and 171 % of control (dose: 37.5 mg/kg/injection, schedule: Q04DX003 (ip), vehicle: acid diluted with saline).
Take `COC(=O)[C@@]12OC[C@]34[C@H]([C@@H](O)[C@@H]1O)[C@@]1(C)CC(=O)C(OC(=O)CC(=O)OC5=C(C)[C@@H]6C[C@H]7OC(=O)[C@H](OC(=O)/C=C(\C)C(C)C)[C@H]8[C@]9(C(=O)OC)OC[C@]78[C@H]([C@@H](O)[C@@H]9O)[C@@]6(C)CC5=O)=C(C)[C@@H]1C[C@H]3OC(=O)[C@H](OC(=O)/C=C(\C)C(C)C)[C@@H]24`: the T/C runs as follows: (dose: 3.12 mg/kg/injection, schedule: Q04DX003 (ip), vehicle: saline + Tween-80 + alcohol) 86 % of control; (dose: 6.25 mg/kg/injection, schedule: Q04DX003 (ip), vehicle: saline + Tween-80 + alcohol) 63 % of control.
Turning to `c1ccc(P(CCNCCP(c2ccccc2)c2ccccc2)c2ccccc2)cc1`, the T/C reads like this: under setting [4], 111 % of control; (dose: 200.0 mg/kg/injection, schedule: Q04DX003 (ip), vehicle: saline with Tween-80) 106 % of control; (dose: 800.0 mg/kg/injection, schedule: Q04DX003 (ip), vehicle: saline with Tween-80) 81 % of control.
`Cc1cc(N)c2ccccc2[n+]1CCCCCCCCCC[n+]1c(C)cc(N)c2ccccc21`: the T/C (dose: 0.75 mg/kg/injection, schedule: Q01DX010 (ip), vehicle: dextrose) was 89 % of control; the T/C (dose: 1.5 mg/kg/injection, schedule: Q01DX010 (ip), vehicle: dextrose) is 79 % of control; the T/C (dose: 2.0 mg/kg/injection, schedule: Q01DX010 (ip), vehicle: dextrose) was 47 % of control; the T/C (dose: 3.0 mg/kg/injection, schedule: Q01DX010 (ip), vehicle: dextrose) was 41 % of control.
With `O=C(Nc1ccccc1)c1c(O)[nH]c(=S)[nH]c1=O`, the T/C (dose: 50.0 mg/kg/injection, schedule: Q04DX003 (ip), vehicle: saline with Tween-80) is 85 % of control; the T/C under setting [1] is 98 % of control; the T/C under setting [4] is 108 % of control.
In the case of `CCCSc1nc(COC(=O)NC)c(COC(=O)NC)n1C`, the T/C runs as follows: (dose: 30.0 mg/kg/injection, schedule: Q04DX003 (ip), vehicle: saline) 74 % of control; (dose: 60.0 mg/kg/injection, schedule: Q04DX003 (ip), vehicle: saline) 76 % of control; (dose: 120.0 mg/kg/injection, schedule: Q04DX003 (ip), vehicle: saline) 70 % of control; (dose: 240.0 mg/kg/injection, schedule: Q04DX003 (ip), vehicle: saline) 26 % of control.
Consider `Cc1c(N)nc(C(CC(N)=O)NCC(N)C(N)=O)nc1C(=O)NC(C(=O)NC(C)C(O)C(C)C(=O)NC(C(=O)NCCc1nc(-c2nc(C(=O)NCCCNC(C)c3ccccc3)cs2)cs1)C(C)O)C(OC1OC(CO)C(O)C(O)C1OC1OC(CO)C(O)C(OC(N)=O)C1O)c1cnc[nH]1` (stereo not given), for which the T/C (dose: 8.0 mg/kg/injection, schedule: Q01DX010 (sc), vehicle: saline) is 69 % of control; the T/C (dose: 16.0 mg/kg/injection, schedule: Q01DX010 (sc), vehicle: saline) was 55 % of control; the T/C (dose: 32.0 mg/kg/injection, schedule: Q01DX010 (sc), vehicle: saline) was 43 % of control.
Consider `CCOC(=O)Nc1cc(NC(C)/C(=N/O)c2ccccc2)c([N+](=O)[O-])c(N)n1` (stereo not given), for which the T/C runs as follows: (dose: 18.75 mg/kg/injection, schedule: Q04DX003 (ip), vehicle: Klucel (hydroxypropylcellulose) (HPC)) 84 % of control; (dose: 37.5 mg/kg/injection, schedule: Q04DX003 (ip), vehicle: Klucel (hydroxypropylcellulose) (HPC)) 60 % of control; (dose: 75.0 mg/kg/injection, schedule: Q04DX003 (ip), vehicle: Klucel (hydroxypropylcellulose) (HPC)) 72 % of control.
For `CN=C(NC)c1ccc(NC(=O)/C=C\c2ccc(/C=C/C(=O)Nc3ccc(C(=NC)NC)cc3)cc2)cc1`, under “dose: 6.25 mg/kg/injection, schedule: Q04DX003 (ip), vehicle: Klucel (hydroxypropylcellulose) (HPC)”, the T/C is 89 % of control.
Take `O=C(Nc1cccnc1)c1ccc([N+](=O)[O-])s1`: the T/C is 92 % of control (dose: 50.0 mg/kg/injection, schedule: Q04DX003 (ip), vehicle: saline); 81 % of control and 90 % of control (dose: 100.0 mg/kg/injection, schedule: Q04DX003 (ip), vehicle: saline); 92 % of control and 103 % of control (dose: 200.0 mg/kg/injection, schedule: Q04DX003 (ip), vehicle: saline); 80 % of control (dose: 400.0 mg/kg/injection, schedule: Q04DX003 (ip), vehicle: saline); 105 % of control (dose: 800.0 mg/kg/injection, schedule: Q04DX003 (ip), vehicle: saline).
